Like-named read-outs stand apart in the source and are kept apart here.
Legend:
Format in all cases: in vivo
[1] = system: Musca domestics; assay: Experimental Example 3: filter paper test with sucrose bait, death rate of Musca domestics; conditions: read-out: death rate of the pest
Description: Preparations of the present compounds (1), (2), (3), (4), (5), (6), (8), (9), (10), (11), (12), (13), (14), (15), (16), (17), (18), (19), (21), (22), (23), (24), (25), (26), (27), (31), (34), (35), (36), (37), (38), (39), (40), (42), (47), (50), (52), (54), (66), (67) and (68) obtained according to Formulation Example 5 were diluted with water so that the active ingredient concentration was 500 ppm to prepare experimental pesticidal solutions.
(§1) A filter paper having a diameter of 5.5 cm was spread on the bottom of a polyethylene cup having a diameter of 5.5 cm and 0.7 ml of the experimental pesticidal solution was added dropwise onto the filter paper. As a bait 30 mg of sucrose was uniformly placed on the filter paper. Into the polyethylene cup, 10 female Musca domestics imagoes were released and the cup was sealed with a lid. After 24 hours, the number of surviving Musca domestics was examined and the death rate of the pest was calculated.

[2] = system: Culex pipiens pallens; assay: Experimental Example 5: larvae in treated water, death rate of Culex pipiens pallens; conditions: 24 h, read-out: death rate of the pest
Description: Preparations of the present compounds (1), (2), (4), (5), (6), (8), (9), (11), (12), (13), (14), (15), (16), (17), (18), (19), (21), (22), (23), (24), (25), (26), (27), (31), (33), (34), (35), (36), (37), (38), (39), (40), (42), (43), (47), (48), (50), (52), (53), (54), (62), (64), (65), (66), (67), (68) and (70) obtained according to Formulation Example 5 were diluted with water so that the active ingredient concentration was 500 ppm to prepare experimental pesticidal solutions.
0.7 ml of the experimental pesticidal solution was added to 100 mL of ion-exchanged water (active ingredient concentration: 3.5 ppm). Into the solution, 20 last-instar larvae of Culex pipiens pallens were released. After one day, the surviving number was examined and the death rate of the pest was calculated.

[3] = system: Blattalla germanica; assay: Experimental Example 4: filter paper test with sucrose bait, death rate of Blattalla germanica; conditions: 144 h; 500 ppm active ingredient, 0.7 ml on filter paper; two male imagoes; after 6 days
Description: Preparations of the present compounds (2), (4), (5), (6), (8), (9), (11), (12), (13), (15), (17), (18), (19), (21), (24), (25), (26), (27), (35), (36), (37), (38), (40), (41), (42), (47), (50), (52), (54), (62), (64), (65), (66) and (68) obtained according to Formulation Example 5 were diluted with water so that the active ingredient concentration was 500 ppm to prepare experimental pesticidal solutions.
as §1, with “two male Blattalla gexmanica images” for “10 female Musca domestics imagoes”, “6 days,” for “24 hours,”, “Blattalla germanica” for “Musca domestics”

[4] = 500 ppm active ingredient, 0.7 ml on filter paper, 10 female imagoes, after 24 hours
[5] = active ingredient concentration 3.5 ppm in water, 20 last-instar larvae, after one day

Row | Structure (SMILES) | pest or weed control at 500 ppm [1, 4] [%] | pest or weed control at 3.5 ppm [2, 5] [%] | pest or weed control at 500 ppm ([1]; 24 h) [%] | pest or weed control at 3.5 ppm [2] [%] | pest or weed control at 500 ppm [3] [%]
1 | CC(C)(C)c1cc(CC(C#N)(C#N)CCC(F)(F)F)[nH]n1 [present compound (1)] | ≥ 90 | ≥ 95 | – | – | –
2 | N#CC(C#N)(CCC(F)(F)F)Cc1cc(C(F)(F)C(F)(F)C(F)(F)F)on1 [present compound (39)] | – | – | ≥ 90 | ≥ 95 | –
3 | C#CCOc1nc(CC(C#N)(C#N)CCC(F)(F)F)cs1 [present compound (14)] | ≥ 90 | ≥ 95 | – | – | –
4 | Cc1ncc(CC(C#N)(C#N)CCC(F)(F)F)s1 [present compound (15)] | ≥ 90 | ≥ 95 | – | – | 100
5 | C#CCOc1ncc(CC(C#N)(C#N)CCC(F)(F)F)s1 [present compound (19)] | ≥ 90 | ≥ 95 | – | – | 100
6 | CC(C)(C)c1nc(CC(C#N)(C#N)CCC(F)(F)F)no1 [present compound (24)] | ≥ 90 | ≥ 95 | – | – | 100
7 | CCc1ncc(CC(C#N)(C#N)CCC(F)(F)F)s1 [present compound (16)] | ≥ 90 | ≥ 95 | – | – | –
8 | CCC(c1cc(C(F)(F)F)on1)C(C#N)(C#N)CCC(F)(F)F (centres unmarked) [present compound (37)] | ≥ 90 | ≥ 95 | – | – | 100
9 | COc1cc(CC(C#N)(C#N)CCC(F)(F)F)on1 [present compound (68)] | ≥ 90 | ≥ 95 | – | – | 100
10 | Cn1nc(C(C)(C)C)cc1CC(C#N)(C#N)CCC(F)(F)F [present compound (2)] | ≥ 90 | ≥ 95 | – | – | 100
11 | C#CCOC(C)(C)c1cc(CC(C#N)(C#N)CCC(F)(F)F)no1 [present compound (67)] | ≥ 90 | ≥ 95 | – | – | –
12 | CC1(c2nc(CC(C#N)(C#N)CCC(F)(F)F)no2)CC1 [present compound (25)] | ≥ 90 | ≥ 95 | – | – | 100
13 | CC(C)(C)c1cc(CC(C#N)(C#N)CCC(F)(F)F)no1 [present compound (6)] | ≥ 90 | ≥ 95 | – | – | 100
14 | CC(C)(C)c1cc(CC(C#N)(C#N)CCC(F)(F)F)on1 [present compound (4)] | ≥ 90 | ≥ 95 | – | – | 100
15 | CC(C)c1cc(CC(C#N)(C#N)CCC(F)(F)F)no1 [present compound (40)] | ≥ 90 | ≥ 95 | – | – | 100
16 | CC(c1cc(C(C)(C)O)on1)C(C#N)(C#N)CCC(F)(F)F (centres unmarked) [present compound (62)] | – | ≥ 95 | – | – | 100
17 | N#CC(C#N)(CCC(F)(F)F)Cc1cc(C(F)(F)C(F)(F)F)on1 [present compound (38)] | ≥ 90 | ≥ 95 | – | – | 100
18 | CC(F)c1cc(CC(C#N)(C#N)CCC(F)(F)F)no1 (centres unmarked) [present compound (50)] | ≥ 90 | ≥ 95 | – | – | 100
19 | CC(C)(C)c1cc(CC(C#N)(C#N)CCC(F)(F)F)sn1 [present compound (5)] | ≥ 90 | ≥ 95 | – | – | 100
20 | CC(C)(C)c1nnc(CC(C#N)(C#N)CCC(F)(F)F)o1 [present compound (22)] | ≥ 90 | ≥ 95 | – | – | –
21 | N#CC(C#N)(CCC(F)(F)F)Cc1cscn1 [present compound (10)] | ≥ 90 | – | – | – | –

Row | Structure (SMILES) | pest or weed control at 500 ppm [1, 4] [%] | pest or weed control at 3.5 ppm [2, 5] [%] | pest or weed control at 500 ppm ([1]; 24 h) [%] | pest or weed control at 3.5 ppm [2] [%] | pest or weed control at 500 ppm [3] [%]
22 | N#CC(C#N)(CCC(F)(F)F)Cc1cc(C(F)F)on1 [present compound (47)] | ≥ 90 | ≥ 95 | – | – | 100
23 | CC(C)(C)c1cc(CC(C#N)(C#N)CCC(F)(F)F)n(CC(F)(F)F)n1 [present compound (3)] | ≥ 90 | – | – | – | –
24 | CC(C)(C)c1ncc(CC(C#N)(C#N)CCC(F)(F)F)s1 [present compound (17)] | ≥ 90 | ≥ 95 | – | – | 100
25 | CC(c1cnn(C(C)(C)C)c1)C(C#N)(C#N)CCC(F)(F)F (centres unmarked) [present compound (27)] | ≥ 90 | ≥ 95 | – | – | 100
26 | CC(C)(C)c1nc(CC(C#N)(C#N)CCC(F)(F)F)cs1 [present compound (12)] | ≥ 90 | ≥ 95 | – | – | 100
27 | CC(C)(C)[Si](C)(C)OCc1cc(CC(C#N)(C#N)CCC(F)(F)F)no1 [present compound (43), [(5-(t-butyldimethylsilanyloxymethyl)isoxazol-3-yl)methyl](3,3,3-trifluoropropyl)malononitrile] | – | – | – | ≥ 95 | –
28 | CC(C)(F)c1cc(CC(C#N)(C#N)CCC(F)(F)F)no1 [present compound (54)] | ≥ 90 | ≥ 95 | – | – | 100
29 | CCc1nc(CC(C#N)(C#N)CCC(F)(F)F)no1 [present compound (23)] | ≥ 90 | ≥ 95 | – | – | –
30 | CC(C)c1cc(C(C)C(C#N)(C#N)CCC(F)(F)F)no1 (centres unmarked) [present compound (41)] | – | – | – | – | 100
31 | CC(C)(O)c1cc(CC(C#N)(C#N)CCC(F)(F)F)no1 [present compound (53)] | – | ≥ 95 | – | – | –
32 | CC(C)(C)Cc1nc(CC(C#N)(C#N)CCC(F)(F)F)no1 [present compound (26)] | ≥ 90 | ≥ 95 | – | – | 100
33 | CC[S+]([O-])c1ncc(CC(C#N)(C#N)CCC(F)(F)F)n1C (centres unmarked) [present compound (70)] | – | ≥ 95 | – | – | –
34 | CC(C)(C)n1cc(CC(C#N)(C#N)C2C=CCCC2)cn1 (centres unmarked) [present compound (33)] | – | ≥ 95 | – | – | –
35 | CC(F)(F)c1cc(CC(C#N)(C#N)CCC(F)(F)F)no1 [present compound (52)] | ≥ 90 | ≥ 95 | – | – | 100
36 | N#CC(C#N)(CCC(F)(F)F)Cc1csc(Cl)n1 [present compound (13)] | ≥ 90 | ≥ 95 | – | – | 100
37 | C#CCn1cc(CC(C#N)(C#N)CCC(F)(F)F)cn1 [present compound (31)] | ≥ 90 | ≥ 95 | – | – | –
38 | CC(O[Si](C)(C)C(C)(C)C)c1cc(CC(C#N)(C#N)CCC(F)(F)F)no1 (centres unmarked) [present compound (48)] | – | – | – | ≥ 95 | –
39 | N#CC(C#N)(CCC(F)(F)F)Cc1cnn(Cc2ccccc2)c1 [present compound (8)] | ≥ 90 | ≥ 95 | – | – | 100
40 | CC(C)(C)n1ncc(CC(C#N)(C#N)CCC(F)(F)F)c1-n1cccc1 [present compound (34)] | ≥ 90 | ≥ 95 | – | – | –
41 | CC(C)C(c1cc(C(C)(C)O)on1)C(C#N)(C#N)CCC(F)(F)F (centres unmarked) [present compound (65)] | – | ≥ 95 | – | – | 100
42 | CCC(c1cc(C(C)(C)O)on1)C(C#N)(C#N)CCC(F)(F)F (centres unmarked) [present compound (64)] | – | ≥ 95 | – | – | 100

From patent publication US7846956B2, “Malononitrile compound as pesticides” (Sumitomo Chemical Company, Limited, priority 2004, dated 2010)
